Laboratory results published in patent US10562857B2 (AFASCI, Inc., priority 2015, dated 2020).
Entries after “also recorded” stand apart in the source; their conditions may differ. Read-outs that look alike come from different tables or passages of the source.

Key:
SNI rats [1] = test: Spared nerve injury (SNI) rats, von Frey monofilament test; assay type: in vivo, rat; conditions: for duration of elevated mechanical thresholds: 10 mg/kg P.O.; for mechanical pain threshold of left hindpaw (allodynia): 10 mg/kg oral gavage, P.O., 10 mg/kg
Experimental: FIG. 3B. Mechanical pain threshold assessment (von Frey monofilament test) of SNI rats' left hindpaws. Each SNI rat received either EXAMPLE-106, -107, and -115 (each 30 mg/kg, 1 mL I.P.), or vehicle (1 mL I.P. 2% DMSO in 0.5% HPC). Sham rats also received vehicle I.P. injections. […] The sham-vehicle serves as a positive control. Thermal and mechanical pain responses were measured once every hour for 8 consecutive hours after I.P. treatment (n=8 rats per treatment group).
FIG. 4. Mechanical pain threshold assessment (von Frey monofilament test) of left hindpaws in another cohort of SNI rats. Each SNI rat received either EXAMPLE-128, -130, -132, or Z944 (as a reference compound, each 10 mg/kg, 2 mL oral gavage, P.O.). […] Mechanical pain responses were measured at pre-dosing, 1, 2, 4, and 6 hours post-treatment using von Frey monofilament test (n=8 rats per group).
In additional examples shown here, the analgesic effects were further evaluated in another rat species. Baseline thermal and mechanical thresholds of male rats (Sprague-Dawley rats, 275 g-325 g, Harlan) were taken prior to surgery; baseline thresholds were measured on the rats' left hindpaws. Thirty-two rats underwent the SNI surgery on their left hind leg; 8 rats underwent surgery without injury of the nerves as a sham group. Two weeks post-surgery, the thermal thresholds of each rat were reassessed. […] Each rat received either EXAMPLE-106, -107, -115 (each 30 mg/kg, 1 mL I.P.), or vehicle (2% DMSO in 0.5% HPC). Thermal and mechanical thresholds were measured at 1, 2, 3, 4, 5, 6, 7, and 8 hours post-treatment/dosing. […] The drug actions started around 1 hour post-injection and peaked between 2 and 3 hours, and the drug effects gradually declined to pre-treatment levels over 6-7 hours (FIGS. 3A and B).
In another cohort of SNI rats ((n=8 per group)), mechanical thresholds were measured at pre-dosing, 1, 2, 4, and 6 hours post-treatment using von Frey monofilament test.

[2] = Plasma protein binding, human; assay type: in vitro ADME; conditions: for fraction unbound: read-out: PPB % (Human) (converted)
From the text: (§1) In vitro data of metabolic stability and protein binding as well as in vivo pharmacokinetic data for compounds of the invention can be generated using the techniques disclosed in, e.g., Obach, R. S. et al., J. Pharmacol. Exp. Ther. 283(1): 46-58 (1997), which is hereby incorporated by reference in its entirety. Various biological, pharmacokinetic and other properties of the compounds, including hepatic microsomal stability, determination of metabolites, binding to proteins such as plasma protein binding, and in vivo studies, including single-dose and multi-dose pharmacokinetic studies, can be determined using the protocols described in that publication and the publications cited therein. Other aspects and advantages of the present invention will become apparent from the above detailed description, as illustrated by way of example of the principles of the invention. The scope of the invention is to be defined by the claims appended hereto and their equivalents. Selected pharmacokinetic studies in vitro and in vivo in rats were performed for preferred compounds, for example EXAMPLE-128 and compared with two reference compounds ML218 and Z944 by a contract research organization (BioDuro, Inc., San Diego, US). Tables 3A and 3B summarize some of the in vitro and vivo pharmacodynamic and pharmacokinetic parameters, respectively.

Plasma stability, human = assay type: in vitro ADME
From the text: as §1

Cardiac Na+ channels = biological target: T1, Cardiac Na+ channels (Homo sapiens, UniProt Q14524); test: Cardiac sodium currents in human iPSC-derived cardiomyocytes; assay type: cell-based; conditions: human iPSC cardiomyocytes
T1 construct: host or cells: human iPSC-derived cardiomyocytes
T1 sequence (Q14524 whole entry): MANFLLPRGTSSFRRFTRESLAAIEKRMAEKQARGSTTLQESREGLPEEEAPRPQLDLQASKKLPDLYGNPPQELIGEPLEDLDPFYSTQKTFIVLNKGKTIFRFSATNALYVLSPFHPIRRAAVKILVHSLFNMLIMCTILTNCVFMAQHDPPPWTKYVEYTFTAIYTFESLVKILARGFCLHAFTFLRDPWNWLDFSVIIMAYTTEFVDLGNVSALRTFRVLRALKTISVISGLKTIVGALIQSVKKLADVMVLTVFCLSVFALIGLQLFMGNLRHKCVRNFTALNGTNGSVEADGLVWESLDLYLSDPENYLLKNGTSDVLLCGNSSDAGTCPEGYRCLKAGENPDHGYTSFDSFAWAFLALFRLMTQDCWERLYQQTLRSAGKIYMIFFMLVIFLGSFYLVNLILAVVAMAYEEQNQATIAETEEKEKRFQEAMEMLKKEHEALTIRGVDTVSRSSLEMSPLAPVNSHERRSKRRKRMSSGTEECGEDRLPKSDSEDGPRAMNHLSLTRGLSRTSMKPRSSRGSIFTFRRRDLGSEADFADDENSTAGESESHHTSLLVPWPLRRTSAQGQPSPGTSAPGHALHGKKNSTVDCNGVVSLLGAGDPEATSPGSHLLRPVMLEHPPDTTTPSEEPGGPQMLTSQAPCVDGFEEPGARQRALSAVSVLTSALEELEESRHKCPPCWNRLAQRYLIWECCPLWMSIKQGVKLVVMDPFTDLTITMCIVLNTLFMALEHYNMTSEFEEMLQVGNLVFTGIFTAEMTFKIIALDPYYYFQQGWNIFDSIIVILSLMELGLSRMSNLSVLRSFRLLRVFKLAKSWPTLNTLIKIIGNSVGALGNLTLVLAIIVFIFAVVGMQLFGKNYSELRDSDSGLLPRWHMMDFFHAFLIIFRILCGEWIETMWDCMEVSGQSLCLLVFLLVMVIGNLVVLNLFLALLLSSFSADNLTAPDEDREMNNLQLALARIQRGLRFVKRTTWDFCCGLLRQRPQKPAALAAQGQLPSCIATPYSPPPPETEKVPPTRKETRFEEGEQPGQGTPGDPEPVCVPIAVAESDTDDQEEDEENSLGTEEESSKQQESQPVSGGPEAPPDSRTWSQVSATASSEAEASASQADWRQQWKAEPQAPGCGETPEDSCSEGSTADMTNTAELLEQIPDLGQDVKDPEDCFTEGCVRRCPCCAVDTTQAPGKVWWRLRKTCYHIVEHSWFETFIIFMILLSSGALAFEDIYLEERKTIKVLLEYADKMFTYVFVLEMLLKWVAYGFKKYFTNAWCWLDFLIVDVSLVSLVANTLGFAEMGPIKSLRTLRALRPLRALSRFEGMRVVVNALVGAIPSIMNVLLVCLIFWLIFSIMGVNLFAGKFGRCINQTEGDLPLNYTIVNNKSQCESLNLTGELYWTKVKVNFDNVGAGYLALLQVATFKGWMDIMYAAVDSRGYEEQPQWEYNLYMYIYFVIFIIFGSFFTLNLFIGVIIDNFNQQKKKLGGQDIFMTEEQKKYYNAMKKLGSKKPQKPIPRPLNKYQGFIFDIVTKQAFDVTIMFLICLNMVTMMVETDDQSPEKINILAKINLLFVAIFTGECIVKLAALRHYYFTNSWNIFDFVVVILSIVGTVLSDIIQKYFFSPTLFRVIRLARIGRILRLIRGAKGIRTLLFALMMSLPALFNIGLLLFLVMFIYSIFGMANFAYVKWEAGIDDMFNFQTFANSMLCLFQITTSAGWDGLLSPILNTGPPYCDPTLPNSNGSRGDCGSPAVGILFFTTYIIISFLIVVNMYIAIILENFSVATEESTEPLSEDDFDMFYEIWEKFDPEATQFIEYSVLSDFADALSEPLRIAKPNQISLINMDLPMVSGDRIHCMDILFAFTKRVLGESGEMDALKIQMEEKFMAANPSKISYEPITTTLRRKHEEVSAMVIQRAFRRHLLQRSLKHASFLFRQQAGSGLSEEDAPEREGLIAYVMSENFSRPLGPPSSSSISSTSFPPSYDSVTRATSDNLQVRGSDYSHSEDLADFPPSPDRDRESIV
Experimental: Cardiac sodium channels play a critical role in heart contraction. Inhibition of these sodium channels could potentially cause severe unwanted side effects. Therefore the representative example compounds in Table 2 were tested in cardiac sodium channels. Cardiomyocytes derived from human induced pluripotent stem cells (iPSC-CM) were obtained from Axol Bioscience Ltd (Cambridge, UK). Cells were thawed and grown on matrigel coated glass coverslips in Cardiomyocyte Maintenance Medium (Axol Bioscience). […] The internal solution was composed (in mM) of 120 KF, 10 HEPES, 11 EGTA, 1 CaCl2, 1 MgCl2, 10 TEA-Cl (pH 7.2 adjusted with KOH). Sodium currents were recorded at a holding potential of −100 mV and depolarized to −20 mV. Cells were incubated with example compounds until currents reached a steady-state level. To determine IC50 values, example compounds were applied gradually from low to high concentrations. The current responses were normalized to the control, percent inhibition was calculated and a sigmoidal dose response curve was plotted to determine IC50 values as described above.

Rat pharmacokinetics = assay type: in vivo; conditions: for half-life / AUC / bioavailability: plasma; for AUC: read-out: Rat PK AUCfree; for bioavailability: read-out: Rat PK F (%) bioavailability
From the text: as §1

[3] = Metabolic stability in human liver microsomes; assay type: in vitro ADME
From the text: as §1

[4] = test system: PTZ-induced seizures in mice; test: Pentylenetetrazol (PTZ)-induced seizures in mice; assay type: in vivo, mouse; conditions: for PTZ-induced Fatality (%): 30 mg/kg I.P. 60 min before PTZ 40 mg/kg I.P., death within 20 min; for latency to seizures / fatality latency / fatality rate: 30 mg/kg I.P., PTZ 40 mg/kg I.P.; for fatality latency / fatality rate: 20 min cutoff
Experimental: FIG. 10. […] Sixty minutes (min) prior to receiving PTZ (40 mg/kg, I.P.), each mouse was pretreated with either an Example compound, ML218, Z944 or vehicle (2% DMSO in 0.5% HPC). Fatality rate (%) of mice in each group that dies within the 20 minutes observation period—was calculated. Both fatality rate and latency (data not shown) to death were used to evaluate the Example compound's ability to prevent death resulting from PTZ-induced seizures. A cutoff of 20 minutes was set for observational and statistical analysis purposes.
It is well known that antiepileptics, e.g. carbamazepine, lamotrigine and gabapentin are used for the treatment of neuropathic pain (Xie et al., 1995, Caviedes and Herranz, 2001). T-channel overactivation is involved in the generation of seizure activity (Huguenard, 1998, Cribbs et al., 2000, Perez-Reyes et al., 2009, Perez-Reyes, 2010). […] Fatality latency and rate—the percentage (%) of mice in each treatment group that died within a 20 minute cutoff of the observational period, were recorded and calculated. Averaged fatality latency and rate of each treatment group was used to evaluate the Example compound's ability to either prevent or delay the onset of PTZ-induced seizures and death.

[5] = Plasma protein binding, rat; assay type: in vitro ADME; conditions: for fraction unbound: read-out: PPB % (Rat) (converted)
From the text: as §1

SNI rats [6] = test: Spared nerve injury (SNI) rats, von Frey monofilament test; assay type: in vivo, rat; conditions: pain in rats, 30 mg/kg, P.O.
[7] = iv, read-out: Plasma t1/2 (h) iv (converted)
[8] = po, read-out: Plasma t1/2 (h) po (converted)
[9] = read-out: Human Liver Microsomes Clint (μL/min/mg protein)
[10] = read-out: Human Liver Microsomes t1/2

SMILES | duration of elevated mechanical thresholds (SNI rats [1]) | mechanical pain threshold of left hindpaw (allodynia) (SNI rats [1]) | recovery [2] | fraction unbound [2] | Plasma Stability @ 5 h % (Human) (Plasma stability, human) | IC50 (Cardiac Na+ channels) | Rat PK AUCtotal (μM*h) (Rat pharmacokinetics) | half-life (Rat pharmacokinetics; [7]) | half-life (Rat pharmacokinetics; [8]) | AUC (Rat pharmacokinetics) | bioavailability (Rat pharmacokinetics) | PTZ-induced Fatality (%) [4] | latency to seizures [4] | fatality latency [4] | fatality rate [4] | recovery [5] | fraction unbound [5] | SNI-Model Mechanical % of baseline (SNI rats [6]) | microsomal CLint [3, 9] | half-life [3, 10] | further results
CC(C)(C)NC(=O)CN1CCC2(CC1)CC2NC(=O)c1cc(F)cc(Cl)c1 (single isomer, unassigned) [Example 128, (S)—N-(6-(2-(tert-Butylamino)-2-oxoethyl)-6-azaspiro[2.5]octan-1-yl)-3-chloro-5-fluorobenzamide or (R)—N-(6-(2-(tert-Butylamino)-2-oxoethyl)-6-azaspiro[2.5]octan-1-yl)-3-chloro-5-fluorobenzamide] | approximately 4 hours | elevated mechanical thresholds; also recorded: reduced allodynia | 98.3% | 0.043 | 95.7/ % | 83.5 µM | 4.1 h/µM | 3.34 h | 3.66 h | 1 µM·h | 62% | 16.7% | significantly prolonged latencies to seizures | prolonged fatality latencies | decreased the fatality rate | 90.4% | 0.242 | 45 ± 15 % of baseline | – | – | half-life [3]: 6.08 h; microsomal CLint [3]: 1.9 µL/min/mg
CC(C)(C)NC(=O)CN1CCC2(CC1)C[C@H]2C(=O)Nc1cc(C(F)(F)F)cc(C(F)(F)F)c1 (single isomer, unassigned) [Example 132, (R)—N-(3,5-Bis(trifluoromethyl)phenyl)-6-(2-(tert-butylamino)-2-oxoethyl)-6-azaspiro[2.5]octane-1-carboxamide or (S)—N-(3,5-Bis(trifluoromethyl)phenyl)-6-(2-(tert-butylamino)-2-oxoethyl)-6-azaspiro[2.5]octane-1-carboxamide] | approximately 4 hours | elevated mechanical thresholds; also recorded: reduced allodynia | – | – | – | 51.6 µM | – | – | – | – | – | – | significantly prolonged latencies to seizures | prolonged fatality latencies | decreased the fatality rate | – | – | – | – | – | –
CC(C)(C)CCN1C[C@@H]2[C@@H](CNC(=O)c3cc(Cl)cc(Cl)c3)[C@@H]2C1 [ML218, 3,5-Dichloro-N-[[(1α,5α,6-exo,6α)-3-(3,3-dimethylbutyl)-3-azabicyclo[3.1.0]hex-6-yl]methyl]benzamide, reference compound] | – | – | 97.1% | 0.046 | 97.9/ % | 39.8 µM | 0.071 h/µM | 236 h | – | 0.007 µM·h | 28% | 50% | significantly prolonged latencies to seizures | prolonged fatality latencies | decreased the fatality rate | 94.9% | 0.108 | 45 ± 11 % of baseline | 1.1 µL/min/mg | 10.5 h | –
CC(C)(C)NC(=O)CN1CCC(CNC(=O)c2cc(F)cc(Cl)c2)CC1 [Z944, reference compound] | approximately 4 hours | elevated mechanical thresholds; also recorded: reduced allodynia | 93.6% | 0.064 | 100/ % | 21.4 µM | 0.51 h/µM | 1.5 h | 2.26 h | 0.14 µM·h | 55% | 33.3% | significantly prolonged latencies to seizures | prolonged fatality latencies | decreased the fatality rate | 91.1% | 0.287 | 28 ± 18 % of baseline | 5.5 µL/min/mg | 2.1 h | –
